# Results published in US12357596B2, “Compounds for prevention and treatment of obesity and related disorders” (ABREXA PHARMACEUTICALS, INC., priority 2019, dated 2025).
# Test: Oral gavage study up to 28 days at 0, 30, 100 and 300 mg/kg/day (body weight, food consumption)
# Type: in vivo, beagle dogs
# Protocol: J147 or vehicle was administered once daily to beagle dogs via oral gavage for up to 28 days at a daily dose of 0, 30, 100 and 300 mg/kg. J174 was prepared in a vehicle formulation comprising 5% ethanol, 5% DMSO and 90% corn oil (v/v/v). Block Lab Diet (Certified Canine Diet #5007, PMI Nutrition International, Inc.) was offered via limited feedings, except during designated periods. The animals were offered food 2 hours post-dose on each dosing day for 2 to 5 hours. Food was offered 2 to 5 hours/day during the acclimation period and during the recovery period. Tap water was available ad libitum via an automatic watering system. The study protocol is shown below in Table 9.
# [1] = dogs, all J147-treated groups (30, 100, 300 mg/kg/day), both sexes
# [2] = female dogs, 30 mg/kg/day, Day 28
# [3] = female dogs, 100 mg/kg/day, Day 28
# [4] = female dogs, 300 mg/kg/day, Day 21 versus the Day 28 control value
# [5] = male dogs, 30 mg/kg/day, Day 28
# [6] = male dogs, 100 mg/kg/day, Day 28
# [7] = male dogs, 300 mg/kg/day, Day 22 versus the Day 28 control value
smiles,measurement,setting,value
COc1cccc(/C=N/N(C(=O)C(F)(F)F)c2ccc(C)cc2C)c1 [J147],Body weight and body weight gain compared to the vehicle-treated control group,[1],decreased
same,Food consumption compared to the vehicle-treated control group,[1],decreased
same,Decrease of group mean body weight,[2],19%
same,Decrease of group mean food consumption,[2],45%
same,Decrease of group mean body weight,[3],21%
same,Decrease of group mean food consumption,[3],48%
same,Decrease of group mean body weight,[4],23%
same,Decrease of group mean food consumption,[4],38%
same,Decrease of group mean body weight,[5],23%
same,Decrease of group mean food consumption,[5],31%
same,Decrease of group mean body weight,[6],26%
same,Decrease of group mean food consumption,[6],39%
same,Decrease of group mean body weight,[7],18%
same,Decrease of group mean food consumption,[7],48%
